Laboratory results: patent publication US7547803B2, “Process for producing a high purity aromatic polycarboxylic acid” (Mitsubishi Gas Chemical Company, Inc., priority 2003, dated 2009)

Experiment: solubility in water at 280° C.
Type: physicochemical

## O=C(O)c1ccc2cc(C(=O)O)ccc2c1 [2,6-naphthalenedicarboxylic acid]
  solubility of 2,6-naphthalenedicarboxylic acid in water: about 6 g in 100 g of water
